Reference: patent EP1707622A1, “USE OF COMPOUNDS THAT REGULATE HDAC6 TUBULIN DEACETYLASE ACTIVITY IN THE PREPARATION OF PHARMACEUTICAL COMPOSITIONS, METHOD OF IDENTIFYING THE AFOR[…], SAID PHARMACEUTICAL COMPOUNDS AND APPLICATIONS THEREOF” (UNIVERSIDAD AUTONOMA DE MADRID CIUDAD UNIVERSITARIA …, priority 2004, dated 2005)
Where a SMILES comes first, the peptide text is derived from it. [ ]: non-standard residue; d: D form. Aoe = N[C@@H](CCCCCC(=O)[C@@H]1CO1)C(=O)O

What was measured:
[1] = system: J77 cells; test: CD3 clustering in the central region of the immunological synapse; format: cell-based, human; settings: for reversion of the prevention of CD3 clustering caused by HDAC6-GFP: J77 cells transfected with HDAC6-GFP, SEE-marked Raji cells, 30 minutes at 37°C, Figures 5A and B
[2] = system: J77 cells; test: LFA-1 organization in the immunological synapse peripheral ring; format: cell-based, human; settings: J77 cells with SEE-marked Raji cells, 30 minutes at 37°C; Figure 6 and data not shown
[3] = system: J77 cells; test: Microtubule organizing centre (MTOC) translocation assay; format: cell-based, human; settings: for restoration of MTOC translocation in cells transfected with HDAC6-GFP: J77 cells transfected with HDAC6-GFP, SEE-pulsed Raji cells, 3 µM TSA, Figures 7A and B; for MTOC translocation: Figure 7B
Procedure: A 1:1 ratio of Raji cells and T cells transfected with HDAC6 were placed in contact for 15 minutes at 37°C in RPMI medium. The cell conjugates were then gently resuspended and plated on PLL-coated cover slips for 15 more minutes as previously described (Sancho et al., 2002). The cell conjugates were then fixed, permeabilized and stained for α-tubulin for the purpose of observation by immunofluorescence microscopy. The MTOC was considered to be redirected when it was in close proximity with the T cell plasma membrane, between the cell nucleus and the contact area with the antigen-presenting cell. At least 200 cell conjugates were counted in each experiment.

[4] = biological target: T1, HDAC6 (Homo sapiens, UniProt Q9UBN7); settings: CD4+ T lymphocytes and J77 cells pre-treated for 30 minutes (3µM TSA or 5 mM sodium butyrate), SEE-pulsed Raji cells; Figure 3B
T1 sequence (Q9UBN7 1-1215): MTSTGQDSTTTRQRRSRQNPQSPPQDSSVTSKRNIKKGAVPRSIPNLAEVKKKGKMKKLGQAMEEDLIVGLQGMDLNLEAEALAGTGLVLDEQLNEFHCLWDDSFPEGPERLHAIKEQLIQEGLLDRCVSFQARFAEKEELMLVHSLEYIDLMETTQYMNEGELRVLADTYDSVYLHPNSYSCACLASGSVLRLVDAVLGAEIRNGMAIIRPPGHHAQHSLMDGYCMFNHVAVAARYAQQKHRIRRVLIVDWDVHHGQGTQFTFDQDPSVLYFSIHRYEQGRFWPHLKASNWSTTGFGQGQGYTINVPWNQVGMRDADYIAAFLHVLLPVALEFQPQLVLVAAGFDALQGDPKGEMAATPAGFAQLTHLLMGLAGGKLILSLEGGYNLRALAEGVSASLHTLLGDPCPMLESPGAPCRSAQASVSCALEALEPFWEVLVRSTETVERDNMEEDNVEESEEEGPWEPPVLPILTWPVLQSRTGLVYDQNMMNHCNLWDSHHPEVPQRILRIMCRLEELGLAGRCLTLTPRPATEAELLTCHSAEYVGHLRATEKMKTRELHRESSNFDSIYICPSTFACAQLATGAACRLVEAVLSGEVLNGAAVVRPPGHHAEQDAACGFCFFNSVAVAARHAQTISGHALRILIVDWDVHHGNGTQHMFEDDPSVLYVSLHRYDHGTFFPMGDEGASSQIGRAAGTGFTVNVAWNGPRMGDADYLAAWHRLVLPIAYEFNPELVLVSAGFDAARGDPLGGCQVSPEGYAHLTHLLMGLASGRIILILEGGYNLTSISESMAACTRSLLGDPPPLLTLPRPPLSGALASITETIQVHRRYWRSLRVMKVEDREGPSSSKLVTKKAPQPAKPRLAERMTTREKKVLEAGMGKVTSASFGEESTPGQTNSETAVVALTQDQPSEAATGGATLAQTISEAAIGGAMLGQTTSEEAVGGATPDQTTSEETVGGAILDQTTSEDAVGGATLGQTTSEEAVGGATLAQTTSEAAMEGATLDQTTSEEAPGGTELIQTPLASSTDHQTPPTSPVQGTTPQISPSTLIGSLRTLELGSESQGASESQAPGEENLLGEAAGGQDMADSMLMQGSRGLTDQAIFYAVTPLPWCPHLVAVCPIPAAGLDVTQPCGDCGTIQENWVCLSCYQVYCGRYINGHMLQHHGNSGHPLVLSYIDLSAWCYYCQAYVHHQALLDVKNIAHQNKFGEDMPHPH

[5] = treatment effect in the quantitative analysis

Compound | kinetics of CD3 clustering in the central region of the immunological synapse ([1]; J77 cells pre-treated, Raji cells marked with 1µg/ml SEE, different times, Figure 5C) | reversion of the prevention of CD3 clustering caused by HDAC6-GFP [1] | CD3 clustering ([1]; pretreated cells in contact with SEE-marked Raji cells, Figure 5B) | LFA-1 organization in the peripheral ring of the immunological synapse [2] | restoration of MTOC translocation in cells transfected with HDAC6-GFP [3] | kinetics of MTOC translocation ([3]; cell conjugates between J77 and Raji cells, different times, Figure 7C) | MTOC translocation ([3]; peripheral blood CD4+ lymphocytes with SEE-pulsed Raji cells) | acetylated tubulin staining in the contact site with antigen-presenting cells [4] | MTOC translocation [3, 5]
CC(/C=C/C(=O)NO)=C\[C@@H](C)C(=O)c1ccc(N(C)C)cc1 [TSA, Trichostatin A] | accelerated | reverted | slight increase | well organized | restored normal translocation | accelerates | increases |  | 
CCCC(=O)[O-].[Na+] [sodium butyrate] |  | not |  |  | not |  |  | weak | did not affect
O=C1N[C@@H](Cc2ccccc2)C(=O)N2CCC[C@@H]2C(=O)N[C@@H](CCCCCC(=O)[C@@H]2CO2)C(=O)N[C@H]1Cc1ccccc1 [trapoxin B] (cyclo(FF[dP][Aoe])) |  | not |  |  | not |  |  |  | did not affect
